Results from patent US20220297126A1, “Microfluidic Pipette Aspirators for Large-Scale Analysis of Single Cells, Clusters and Their Sub-Populations” (Texas Tech University System, priority 2019, published 2022).
Where a name gives a salt, the structure may show the parent alone.

Experiments:
Format in all cases: cell-based
[1] = tested on: MCF-7 single cells; test: Proliferation of single cells in the microfluidic device in the presence of Dox; settings: time not restated (period of 48 hours)
Procedure: (§1) Drug Assays. Drug assays were conducted on the tumor cells trapped in the microfluidic device. Food and Drug Administration (FDA) approved chemotherapeutic medication Doxorubicin hydrochloride (Dox, Sigma Aldrich) was used on these cells. Dox was diluted with WFI (water for injection) for cell culture (Gibco) to make a 1 mM Dox solution and it was stored at 4° C. This stock solution of Dox was diluted to 100 μM using DMEM, and further 10-fold serial dilutions were done using DMEM or 1× Annexin Binding Buffer (Life technologies) to obtain the desired concentrations of 100 μM, 10 μM, 1 μM, 0.1 μM, 0.01 μM and 0.001 μM. For all experiments, Dox was prepared freshly by diluting it to 100 μM using DMEM and further dilutions were done to achieve the desired concentrations of Dox. The mixing of Dox with the cell samples and loading them in the microfluidic device was done within 2 minutes, followed by imaging of the loaded sample in the microfluidic device. After imaging the microfluidic device, it was incubated in 37° C. and 5% CO2 environment.
(§2) Experimental Protocol. The experimental setup for single cell isolation consists of the microfluidic device, 200 μL single channel pipette (Eppendorf) and a motorized inverted system microscope (Olympus IX81). A sample of 2000 cells in 100 μL was loaded in the 6 mm reservoir (inlet) in the microfluidic device. A 200 μL single channel pipette was set at the 1 mm outlet and it was used to aspirate the cell sample. Flow is generated from the inlet reservoir due to the aspiration pressure and passes through the trapping array. As soon as a cell enters into the parking spots, it gets trap there due to the obstacle pillar. This setup is shown the by schematic in FIG. 2A.
(§3) The MCF-7 cells are tagged using a green fluorescent dye CMFDA (Life technologies) and are trapped in the microfluidic device using the same protocol. […] Media was added in the hydrodynamic height added on the reservoir to keep the cells from getting displaced from the parking spots. All the cell samples including the drug treated cells were handled with the same experimental procedure. The loading time of the cells after cell sample preparation is ˜5 seconds. The hydrodynamic height for the drug treated samples was given by media of corresponding drug concentration.
(§4) Cell staining, viability and apoptosis detection. Proliferation of cells in the microfluidic chip was monitored using CellTracker™ Green CMFDA dye (Life technologies). These counts were validated without staining and by using NucBlue™ Live ReadyProbes™ Reagent (Life technologies) to identify the cell nuclei and thus quantifying the cell counts. LIVE/DEAD® Cell Imaging Kit (Life technologies) was used to analyze viability of cells. The stain was made according to the manufacturer's protocol and was used to identify the live and dead cells. Alexa Fluor® 488 Annexin V (Life technologies) was used for detection of apoptosis. The cell sample and Dox dilution was done using 1× Annexin Binding Buffer (Life technologies). 100 μL of sample was prepared (80 μL cell sample+10 μL Annexin V+10 μL Dox) for conducting drug assays. The final concentrations of the Dox in 100 μL sample were 0.01 μM, 0.001 μM and 0.0001 μM. This sample was incubated at 37° C. and 5% CO2 for 30 minutes before loading in the microfluidic device. The images were taken at different time points for different studies. The microfluidic device was stored in the incubator at 37° C. and 5% CO2 between different image time points.
(§5) To understand the effect of different concentrations of dox on viability of single cells, the inventors conducted a dose response cell viability assay in the microfluidic device. […] From this viability curve, three concentrations were selected to study the proliferation potential of drug resistant MCF-7 and MB-231 single cells. As the […] on the proliferation rate, the lowest three concentrations were selected for this study. […]

[2] = tested on: MB-231 single cells; test: as above
Procedure: as §1, §2, §3, §4, §5

[3] = tested on: MB-231 cells; test: Identifying the state of drug treated cells (apoptotic, non-proliferating/quiescent, proliferating) in the microfluidic device; settings: for cells identified as quiescent: 48 hours
Procedure: as §1, §4
(§6) Identifying the state of drug treated cells. […] These single cells can exist in an apoptotic state or a non-proliferative (quiescent) state. Thus, identifying the state of the cell can give overall information about the drug resistance of cancer cells.
(§7) The apoptotic cells are dead cells; and the non-proliferating cells are the drug resistant cells which are live and have very low proliferative potential. The proliferating cells are also drug resistant cells, which multiply despite of the presence of drug. The drug response for these trapped cells is assessed at 0, 6, 12, 24, 48 hours at 0.01 μM, 0.001 μM and 0.0001 μM concentrations of Dox.
(§8) At the end of 48 hours, the non-proliferative cells were identified as quiescent cells. […] Similarly, 23%, 34% and 10% of cells were identified as quiescent for 0.01 μM, 0.001 μM and 0.0001 μM of dox and MB-231.

[4] = tested on: MCF-7 cells; test: as above; settings: for cells identified as quiescent: 48 hours
Procedure: as §1, §4, §6, §7, §8

[5] = tested on: MB231 cells; test: Mechanical characterization (Young's modulus) of drug treated cells in the μFPA device; settings: FIG. 12A
Procedure: Total 1440 traps, 150 μL Inlet reservoir, Aspiration channel dimension 5×5×35 μm^3. In these figures, a schematic of the complete design. It has an inlet reservoir for holding cell sample. The inlet channel divides into 8 channels and all of them have dead ends. Aspiration traps are place on both sides of the inlet channels. Outlets of two aspiration arrays comes into an outlet channel. Except the first and last outlet channel where a single aspiration has outlets. It has total 1440 traps. This is the snapshot of the PDMS device. In the SEM image you can have a sense of the larger dimension of inlet and outlet channels compared to the aspiration channels.
FIGS. 10A to 10C show the mechanical characterization of cells in the device of the present invention.
FIGS. 12A and 12B show the sensitivity of different cells (MB231 and MCF7) to different drugs (blebbistatin and paclitaxel), and the Young's modulus of the cells. […] Also, cell cycle phases have altered cytoskeletal scaffold. Thus, the μFPA device is sensitive enough to measure cytoskeletal alterations caused by drug interventions and cell cycle phase.

COc1cccc2c1C(=O)c1c(O)c3c(c(O)c1C2=O)C[C@@](O)(C(=O)CO)C[C@@H]3O[C@H]1C[C@H](N)[C@H](O)[C@H](C)O1 [Dox, Doxorubicin hydrochloride]
cells underwent proliferation ([1]; MCF-7, 0.0001 μM Dox): ~80%
cells underwent proliferation ([1]; MCF-7, 0.001 μM Dox): ~60%
cells underwent proliferation ([1]; MCF-7, 0.01 μM Dox): ~45%
cells proliferated ([2]; MB-231, 0.0001 μM dox, time not restated (period of 48 hours)): ~70%
cells proliferated ([2]; MB-231, 0.001 μM dox, time not restated (period of 48 hours)): ~50%
cells proliferated ([2]; MB-231, 0.01 μM dox, at the end of 48 hours): ~40%
cells proliferated ([2]; MB-231, 0.01 μM dox, in 24 hours): ~20%
cells show drug resistance ([3]; MB-231, 0.0001 μM dox): ~85%
cells identified as quiescent ([3]; MB-231, 0.0001 μM dox): 10%
cells show drug resistance ([3]; MB-231, 0.001 μM dox): ~80%
cells identified as quiescent ([3]; MB-231, 0.001 μM dox): 34%
cells show drug resistance ([3]; MB-231, 0.01 μM dox): ~60%
cells identified as quiescent ([3]; MB-231, 0.01 μM dox): 23%
cells show drug resistance ([4]; MCF-7, 0.0001 μM dox): ~90%
cells identified as quiescent ([4]; MCF-7, 0.0001 μM dox): 6%
cells show drug resistance ([4]; MCF-7, 0.001 μM dox): ~75%
cells identified as quiescent ([4]; MCF-7, 0.001 μM dox): 10%
cells show drug resistance ([4]; MCF-7, 0.01 μM dox): ~60%
cells identified as quiescent ([4]; MCF-7, 0.01 μM dox): 8%

Cc1ccc2c(c1)C(=O)C1(O)CCN(c3ccccc3)C1=N2 (stereo not drawn) [blebbistatin]
cytoskeletal alteration seen as Young's modulus of the cells vs control [5]: cytoskeletal alternations in MB231 are induced

CC(=O)O[C@H]1C(=O)[C@@]2(C)[C@H]([C@H](OC(=O)c3ccccc3)[C@]3(O)C[C@H](OC(=O)[C@H](O)[C@@H](NC(=O)c4ccccc4)c4ccccc4)C(C)=C1C3(C)C)[C@]1(OC(C)=O)CO[C@@H]1C[C@@H]2O [paclitaxel]
cytoskeletal alteration seen as Young's modulus of the cells vs control [5]: cytoskeletal alternations in MB231 are induced
